# Assay results published in paper PMC9784828, “Antimicrobial Activity of Peptide-Coupled Antisense Peptide Nucleic Acids in Streptococcus pneumoniae” (Microbiology Spectrum, 2022).
# Test system: Detroit 562 cells infected with S. pneumoniae TIGR4
# Assay: Cell-based infection model, bacterial CFU
# Design: species or system Streptococcus pneumoniae
# Settings: 20 μM CPP-PNA; MOI 5; 3 h at 37°C; n = 3
# Protocol: Detroit 562 human pharyngeal epithelial cells were infected with S. pneumoniae TIGR4 at a multiplicity of infection (MOI) of 5. Cells were treated with 20 μM (RXR)4XB-anti-gyrA PNA or scrambled control PNA, respectively. As a positive control, 1 μg levofloxacin, corresponding to 3× MIC, was added. Following incubation for 3 h at 37°C, bacterial CFU counts were determined for CPP-antisense PNA-treated samples and compared to those in nontreated samples and in samples containing scrambled control PNAs (Fig. 4A). Treatment with (RXR)4XB-anti-gyrA caused a log CFU reduction of 1. Addition of levofloxacin led to a log CFU reduction of 2.
# The human pharynx carcinoma epithelial cell line Detroit 562 (ATCC CCL138) was cultivated in Dulbecco’s modified Eagle medium (DMEM)/F12 (1:1) (Thermo Fisher Scientific, Schwerte, Germany) supplemented with 10% fetal bovine serum at 37°C and 5% CO2. Confluent Detroit 562 cells were infected with S. pneumoniae TIGR4 at an MOI of 5. Cultures were treated with 20 μM CPP-PNAs or 1 μg levofloxacin, respectively, and incubated for 3 h at 37°C, 5% CO2. After incubation, the supernatant was collected. Adherent cells were detached with Accutase solution (Merck KGaA, Darmstadt, Germany), collected by centrifugation for 10 min at 4,000 × g, and combined with the supernatant. Cells were pelleted by centrifugation, washed twice with PBS, and suspended in PBS. CFU/well was determined following serial dilution and plating on Todd Hewitt Broth, supplemented with Yeast, (THY) agar plates.
substance,measurement,value
"RXRRXRRXRRXRXB-eg-tgcattaata [(RXR)4XB-anti-gyrA PNA, (RXR)4XB peptide coupled to antisense PNA against gyrA]",log CFU reduction in infected Detroit 562 cells,1
